Assay [1] addresses T1, PARP7 (Homo sapiens, UniProt Q7Z3E1).
T1 construct: purchased BPS 80527
T1 sequence (Q7Z3E1 1-657): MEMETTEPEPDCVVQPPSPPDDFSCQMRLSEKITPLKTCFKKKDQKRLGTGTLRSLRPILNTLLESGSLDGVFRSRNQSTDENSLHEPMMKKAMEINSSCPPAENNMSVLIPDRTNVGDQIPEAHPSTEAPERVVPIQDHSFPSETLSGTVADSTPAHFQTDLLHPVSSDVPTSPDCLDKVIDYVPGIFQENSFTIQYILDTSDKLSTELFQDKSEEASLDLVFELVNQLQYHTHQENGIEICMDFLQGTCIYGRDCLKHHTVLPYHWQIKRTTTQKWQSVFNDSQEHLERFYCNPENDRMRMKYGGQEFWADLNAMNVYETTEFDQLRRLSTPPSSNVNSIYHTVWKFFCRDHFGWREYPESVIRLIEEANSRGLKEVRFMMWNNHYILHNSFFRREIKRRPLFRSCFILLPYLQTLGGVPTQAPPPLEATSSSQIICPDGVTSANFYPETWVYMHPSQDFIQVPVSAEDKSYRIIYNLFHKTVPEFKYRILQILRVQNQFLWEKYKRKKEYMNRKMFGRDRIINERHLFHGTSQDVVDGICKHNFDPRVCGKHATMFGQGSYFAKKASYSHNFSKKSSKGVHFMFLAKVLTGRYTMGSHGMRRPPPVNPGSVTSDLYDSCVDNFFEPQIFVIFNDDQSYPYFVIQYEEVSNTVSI
The assay is described as follows: PARP7 TR-FRET binding inhibition (displacement of probe RBN011147). The following applies: TR-FRET, Biotin-labeled probe RBN011147; read-out: PARP7 binding inhibition IC50. The protocol: The ability of the compound to substitute the probe RBN011147 (Wigle et al., 2020, Cell Chemical Biology 27, 877-887) was tested by a TR-FRET method, and IC50 was calculated to evaluate the binding ability of the compound to PARP7. […]
In general terms: Time-resolved FRET reads energy transfer from a long-lived donor to a nearby acceptor.

Assay [2] has as its system NCI-H1373 cells. The assay is described as follows: Inhibition on NCI-H1373 cell proliferation (Cell-Titer-Glo). The assay is classed as cell-based. The conditions noted are these: Homo sapiens, 144 h; NCI-H1373 cells, incubation for 6 days, Cell-Titer-Glo; read-out: NCI-H1373 cell proliferation inhibition IC50. The protocol: The inhibitory effect of the compound on PARP7 was evaluated by testing the inhibitory effect of the compound on NCI-H1373 cell proliferation.
NCI-H1373 cells (ATCC, CRL-5866) were cultured in a complete medium, namely, a RPMI-1640 medium (Gibco, 22400089) containing 10% fetal bovine serum (Corning, 35-081-CV).
Negative control wells and positive control wells were added with 50 nL DMSO (Sigma, D2650), respectively.
In "Day 0" detection plate, NCI-H1373 cells were seeded at a density of 600 cells/well (50 µL) in a complete medium into the Day 0 test wells of a 384-well detection plate (Grenier, 781091). Then, 25 µL of Cell-Titer-Glo reagent (Promega, G7573) was added to each well, followed by centrifugation at 1000 rpm at room temperature for 1 minute and incubation at room temperature under shaded conditions for 10 min. Chemiluminescence signals were collected using an Envision (Perkin Elmer, EnVision 2105) to obtain the average value of the Day 0 test values.
In "compound detection plate", NCI-H1373 cells were seeded at a density of 600 cells/well (50 µL) in a complete medium into the negative control wells and the compound detection wells of a 384-well detection plate (Grenier, 781091), and 50 µL of cell culture medium was added to the positive control wells, followed by centrifugation at 1000 rpm at room temperature for 1 minute and placing in a cell incubator at 37°C, 5% CO2 for incubation for 6 days. […] Chemiluminescence signals were collected using an Envision (Perkin Elmer, EnVision 2105). The test values for each compound well, negative control well, and positive control well were obtained.
The proliferation inhibition ratio formula is as follows: [formula]
The average value of the negative control = the average value of the Day 6 test values of each negative control well minus the average value of the Day 0 test values
The average value of the positive control = the average value of the Day 6 test values of each positive control well
The average value of the compound test = (the Day 6 test value of compound test well 1 + the Day 6 test value of compound test well 2)/2 - the average value of the Day 0 test values

Assay [3] deals with T1, PARP7. The assay is described as follows: Inhibition of the compound on PARP7 protein activity (ADP-ribosylation, chemiluminescence). The assay is classed as biochemical. The conditions noted are these: Histone H1 coated plate, Biotin-Labeled NAD+, 2 h at room temperature, chemiluminescence; read-out: PARP7 activity inhibition IC50.

Here are results for 36 compounds from patent publication EP4800012A1, “COMPOUND ACTING AS PARP7 INHIBITOR” (Dovetree Medicines Unus, Inc., priority 2023, dated 2025).

SMILES strings stand for the structures. Where only a bound is given, the exact number is not on record here.

With `CC(CCNC(=O)c1n[nH]c2cc(-c3ncc(C(F)(F)F)cn3)ccc12)Nc1cn[nH]c(=O)c1C(F)(F)F` (stereo not drawn) [Example 7], the values for the IC50 in assay [1] and in assay [2] were 0.03 to 0.1 µM and over 3 µM, respectively.

As for `CC(CCNC(=O)c1n[nH]c2c1CCN(c1ncc(C(F)(F)F)cn1)C2)Nc1cn[nH]c(=O)c1C(F)(F)F` (stereo not drawn) [Example 8], the IC50 is 0.01 to 0.03 µM in assay [1] and over 3 µM in assay [2].

As for `O=C(CCc1c[nH]c(=O)c2ccccc12)Nc1ccc(-c2ncc(C(F)(F)F)cn2)cc1` [Example 12], the results for the IC50 in assay [1] and in assay [3] were 0.01 to 0.03 µM and 0.003 to 0.01 µM, respectively.

With `Cc1cnc(-c2cnc(C(=O)NCCCC(C)Nc3cn[nH]c(=O)c3C(F)(F)F)cn2)s1` (stereo not drawn) [Example 24], the IC50 was 0.01 to 0.03 µM in assay [1] and over 3 µM in assay [2]. `Cc1cc(NC(C)CCCN(C)C(=O)c2ccc(-c3ncc(C(F)(F)F)cn3)cc2O)c(C#N)c(=O)[nH]1` (stereo not drawn) [Example 33]: the IC50 in assay [1] is over 0.1 µM; in assay [3], 0.03 to 0.1 µM.

With `CC(CCCN(C)C(=O)c1cnc(N2CCOCC2)cn1)Nc1cn[nH]c(=O)c1C(F)(F)F` (stereo not drawn) [Example 36], the IC50 in assay [1] is over 0.1 µM; in assay [3], 0.03 to 0.1 µM.

As for `CC(CCCN(C)C(=O)c1cnc(N2CCN(C3CC3)CC2)cn1)Nc1cn[nH]c(=O)c1C(F)(F)F` (stereo not drawn) [Example 37], the IC50 in assay [1] and in assay [3] was over 0.1 µM throughout. For the compound `Cc1cc(NCCCC(C)NC(=O)c2cnc(-c3ncc(C(F)(F)F)cn3)cn2)c(C#N)c(=O)[nH]1` (stereo not drawn) [Example 49], the values for the IC50 in assay [1] and in assay [3] were over 0.1 µM and 0.03 to 0.1 µM, respectively. Take `CC(CCCNC(=O)c1ccc(-c2ncc(C(F)(F)F)s2)cc1F)Nc1cc[nH]c(=O)c1C#N` (stereo not drawn) [Example 71]: the IC50 in assay [1] and in assay [3] was over 0.1 µM each time. `CC(CCCNC(=O)c1ccc(-c2cc(C(F)(F)F)sn2)cc1)Nc1cn[nH]c(=O)c1C(F)(F)F` (stereo not drawn) [Example 83]: the IC50 in assay [1] is under 0.01 µM; in assay [2] it was under 0.3 µM. In the case of `O=C(NCC1CC(Nc2cn[nH]c(=O)c2C(F)(F)F)C1)c1ccc(-c2ncc(C(F)(F)F)s2)cc1` (stereo not drawn) [Example 129], the IC50 in assay [1] is over 0.1 µM. Same read-out and setting: with `O=C(NCCC1CC(OC2CC2)CN1c1cn[nH]c(=O)c1C(F)(F)F)c1ccc(-c2ncc(C(F)(F)F)s2)cn1` (stereo not drawn) [Example 138] the figure was over 0.1 µM; with `CC(CC1CN(C(=O)c2ccc(-n3cc(C(F)(F)F)cn3)cc2)C1)Nc1cn[nH]c(=O)c1C(F)(F)F` (stereo not drawn) [Example 218], over 0.1 µM; with `O=C(c1ccc(-c2ncc(C(F)(F)F)s2)cc1)N1CC2(CC(Nc3cn[nH]c(=O)c3C(F)(F)F)C2)C1` [Example 219], over 0.1 µM. Regarding `O=C(NCCC[C@@H](Nc1cn[nH]c(=O)c1C(F)(F)F)C(=O)N1CCC2(CC2)C1)c1ccc(-c2ncc(C(F)(F)F)s2)cc1` [Example 220], the IC50 in assay [1] is under 0.01 µM; in assay [2] it was under 0.3 µM.

For the compound `C[C@@H]1CCN(C(=O)[C@@H](CCCNC(=O)c2ccc(-c3ncc(C(F)(F)F)s3)cc2)Nc2cn[nH]c(=O)c2C(F)(F)F)C1` [Example 225], the IC50 is under 0.01 µM in assay [1] and under 0.3 µM in assay [2]. As to `O=C(NCC1CC(Nc2cn[nH]c(=O)c2C(F)(F)F)C1)c1ccc(-c2ncc(C(F)(F)F)cn2)cc1` (stereo not drawn) [Example 226], the IC50 in assay [1] is over 0.1 µM. On to `CC1(NC(=O)[C@@H](CCCNC(=O)c2ccc(-c3ncc(C(F)(F)F)s3)cc2)Nc2cn[nH]c(=O)c2C(F)(F)F)CCOCC1` [Example 227], for which the values for the IC50 in assay [1] and in assay [2] were under 0.01 µM and under 0.3 µM, respectively. In the same order, the values of `O=C(NCCC[C@@H](Nc1cn[nH]c(=O)c1C(F)(F)F)C(=O)Nc1cccnc1)c1ccc(-c2ncc(C(F)(F)F)s2)cc1` [Example 234] are under 0.01 µM and 0.3 to 1 µM. With `O=C(NCCC[C@@H](Nc1cn[nH]c(=O)c1C(F)(F)F)C(=O)N1CCSCC1)c1ccc(-c2ncc(C(F)(F)F)s2)cc1` [Example 236], the values for the IC50 in assay [1] and in assay [2] were 0.01 to 0.03 µM and 0.3 to 1 µM, respectively.

Regarding `C[C@H]1CCN1C(=O)[C@@H](CCCNC(=O)c1ccc(-c2ncc(C(F)(F)F)s2)cc1)Nc1cn[nH]c(=O)c1C(F)(F)F` [Example 240], the IC50 in assay [1] was 0.01 to 0.03 µM; in assay [2] it was over 3 µM. In the same order, the values of `Cc1c(-c2cnc(C(F)(F)F)s2)ncn(CCCC(C)Nc2cn[nH]c(=O)c2C(F)(F)F)c1=O` (stereo not drawn) [Example 248] are 0.03 to 0.1 µM and over 3 µM. The like results for `NC(=O)c1cccc2cn(CCCNC(=O)c3ncc(-c4ncc(C(F)(F)F)s4)cc3F)nc12` [Example 249] were, in that order, 0.03 to 0.1 µM and over 3 µM. For `CC(CCCn1ccc2cc(-c3ncc(C(F)(F)F)cn3)cnc2c1=O)Nc1cn[nH]c(=O)c1C(F)(F)F` (stereo not drawn) [Example 250], the IC50 is 0.01 to 0.03 µM in assay [1] and over 3 µM in assay [2]. The like results for `CC(COCc1cc(-c2cnc(C(F)(F)F)nc2)sn1)Nc1cn[nH]c(=O)c1C(F)(F)F` (stereo not drawn) [Example 251] were, in that order, over 0.1 µM and over 3 µM. For the compound `NC(=O)c1cccc2cn(CCCn3cnc4cc(-c5ncc(C(F)(F)F)cn5)c(F)cc4c3=O)nc12` [Example 252], the values for the IC50 in assay [1] and in assay [2] were over 0.1 µM and over 3 µM, respectively.

Turning to `CC(CCCn1ccc2cc(-c3ncc(C(F)(F)F)s3)cnc2c1=O)Nc1cn[nH]c(=O)c1C(F)(F)F` (stereo not drawn) [Example 253], the values for the IC50 in assay [1] and in assay [2] were under 0.01 µM and 1 to 3 µM, respectively. `NC(=O)c1cccc2cn(CCCn3ccc4cc(-c5ncc(C(F)(F)F)cn5)c(F)cc4c3=O)nc12` [Example 254]: in assay [1], the IC50 is over 0.1 µM. Consider `COC1CCN(C(=O)[C@@H](CCCNC(=O)c2ccc(-c3ncc(C(F)(F)F)s3)cc2)Nc2cn[nH]c(=O)c2C(F)(F)F)CC1` [Example 255], for which the results for the IC50 in assay [1] and in assay [2] were under 0.01 µM and 0.3 to 1 µM, respectively.

Regarding `COC1CN(C(=O)[C@@H](CCCNC(=O)c2ccc(-c3ncc(C(F)(F)F)s3)cc2)Nc2cn[nH]c(=O)c2C(F)(F)F)C1` [Example 256], the values for the IC50 in assay [1] and in assay [2] were under 0.01 µM and 0.3 to 1 µM, respectively.

With `Cc1cccc(NC(=O)[C@@H](CCCNC(=O)c2ccc(-c3ncc(C(F)(F)F)s3)cc2)Nc2cn[nH]c(=O)c2C(F)(F)F)n1` [Example 257], the IC50 is under 0.01 µM in assay [1] and under 0.3 µM in assay [2].

Regarding `CC(C)NC(=O)[C@@H](CCCNC(=O)c1ccc(-c2ncc(C(F)(F)F)s2)cc1)Nc1cn[nH]c(=O)c1C(F)(F)F` [Example 258], the IC50 is under 0.01 µM in assay [1] and under 0.3 µM in assay [2]. As for `CCN(C)C(=O)[C@@H](CCCNC(=O)c1ccc(-c2ncc(C(F)(F)F)s2)cc1)Nc1cn[nH]c(=O)c1C(F)(F)F` [Example 259], the IC50 in assay [1] is under 0.01 µM; in assay [2], under 0.3 µM.

For `N#C[C@@H]1CCCN(C(=O)[C@@H](CCCNC(=O)c2ccc(-c3ncc(C(F)(F)F)s3)cc2)Nc2cn[nH]c(=O)c2C(F)(F)F)C1` [Example 260], the IC50 in assay [1] is 0.01 to 0.03 µM; in assay [2], 1 to 3 µM. The like results for `N#CC1CCN(C(=O)C(CCCNC(=O)c2ccc(-c3ncc(C(F)(F)F)s3)cc2)Nc2cn[nH]c(=O)c2C(F)(F)F)C1` (stereo not drawn) [Example 261] were, in that order, 0.03 to 0.1 µM and 0.3 to 1 µM. As to `CC[C@@H]1CN(C(=O)[C@@H](CCCNC(=O)c2ccc(-c3ncc(C(F)(F)F)s3)cc2)Nc2cn[nH]c(=O)c2C(F)(F)F)CCO1` [Example 262], the IC50 in assay [1] was 0.01 to 0.03 µM; in assay [2], under 0.3 µM.
